Values of other authors as cited in US10092580B2, “Controlled-release otic structure modulating and innate immune system modulating compositions and methods for the treatment of otic disorders” (OTONOMY, INC., priority 2008, dated 2018).

Assays:
[1] = administered by IV
V2-R = details: infusion into the scala tympani
[2] = minute concentrations (e.g., 0.05%)

CCN(CC)CC(=O)Nc1c(C)cccc1C [Lidocaine]
sufferers in whom the noise associated with tinnitus is reduced or eliminated [1]: 60-80%

Cc1ccccc1C(=O)Nc1ccc(C(=O)N2CCCC(N(C)C)c3ccccc32)cc1 (stereo not drawn) [OPC-31260]
Meniere's disease symptoms (V2-R): marked reduction

[H]/N=C(\N/C(=N/[H])NCCCCCCNC(=N)NC(=N)Nc1ccc(Cl)cc1)Nc1ccc(Cl)cc1 [chlorhexidene]
ototoxicity [2]: highly ototoxic
